Results published in ChEMBL document CHEMBL1201862, “PubChem BioAssay data set” (2004).
The source made the active and inactive calls.

Tests used:
[1] = molecular target: Luciferin 4-monooxygenase (Photinus pyralis, UniProt P08659); test: firefly luciferase enzyme inhibitors, dose response, biochemical, luminescence (AID 1891)
[2] = Luminescence Cell-Based Dose Confirmation HTS to Identify Inhibitors of Platelet Dense Granule Release. [Related pubchem assays: 1663 (Primary HTS), 1678 (Summary of Project)]; format: functional
[3] = inhibitors of HIV Env-driven cell fusion, dose response, cherry-pick (AID 652057); format: functional, cell-based
[4] = off-target signal loss in HeLa-CEM21 co-culture – HeLa F-luc CTL cells, cherry-picked, counter-screen for HIV-1 Env fusion inhibitor project, dose response (AID 652040); format: functional, cell-based;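 note: potency for signal decrease marking cytotoxic or nonspecific inhibition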
[5] = inhibitors of clade B AD8 Env fusion, dose response, cell-based, cherry-pick (AID 652062); format: functional;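 note: luciferase signal from cell-cell fusion driven by HIV-1 clade B AD8 Env; potency is for inhibitors of fusion seen as a drop in luminescence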
[6] = ZM109 Env clade C HIV-1 fusion inhibitors, dose response, HeLa effector, CEM target cells, luciferase, cherry-pick (AID 652058); format: functional, cell-based
Fatty acid synthase [7] = molecular target: T1, Fatty acid synthase (Homo sapiens, UniProt P49327); test: FAS thioesterase domain inhibitors, dose response, biochemical, endpoint fluorescence intensity, uHTS hits (AID 624327); format: functional;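 note: fluorescence from hydrolysis of an O-methyl fluorescein acyl ester substrate by the enzyme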
Fatty acid synthase [8] = molecular target: T1, Fatty acid synthase; test: FAS thioesterase domain inhibitors, dose response, biochemical, kinetic fluorescence intensity (AID 624326); format: functional;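 note: rate of fluorescence rise from hydrolysis of a fluorogenic O-methyl fluorescein ester substrate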
[9] = molecular target: T2, Short transient receptor potential channel 4 (Mus musculus, UniProt Q9QUQ5); test: mouse TRPC4 channel inhibitors, dose response, cell-based, HEK293 TRPC4/mu-opioid, Fluo-4 calcium (AID 434942); format: functional;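 note: potency of inhibitors blocking the TRPC4 calcium response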
T2 sequence (Q9QUQ5 whole entry): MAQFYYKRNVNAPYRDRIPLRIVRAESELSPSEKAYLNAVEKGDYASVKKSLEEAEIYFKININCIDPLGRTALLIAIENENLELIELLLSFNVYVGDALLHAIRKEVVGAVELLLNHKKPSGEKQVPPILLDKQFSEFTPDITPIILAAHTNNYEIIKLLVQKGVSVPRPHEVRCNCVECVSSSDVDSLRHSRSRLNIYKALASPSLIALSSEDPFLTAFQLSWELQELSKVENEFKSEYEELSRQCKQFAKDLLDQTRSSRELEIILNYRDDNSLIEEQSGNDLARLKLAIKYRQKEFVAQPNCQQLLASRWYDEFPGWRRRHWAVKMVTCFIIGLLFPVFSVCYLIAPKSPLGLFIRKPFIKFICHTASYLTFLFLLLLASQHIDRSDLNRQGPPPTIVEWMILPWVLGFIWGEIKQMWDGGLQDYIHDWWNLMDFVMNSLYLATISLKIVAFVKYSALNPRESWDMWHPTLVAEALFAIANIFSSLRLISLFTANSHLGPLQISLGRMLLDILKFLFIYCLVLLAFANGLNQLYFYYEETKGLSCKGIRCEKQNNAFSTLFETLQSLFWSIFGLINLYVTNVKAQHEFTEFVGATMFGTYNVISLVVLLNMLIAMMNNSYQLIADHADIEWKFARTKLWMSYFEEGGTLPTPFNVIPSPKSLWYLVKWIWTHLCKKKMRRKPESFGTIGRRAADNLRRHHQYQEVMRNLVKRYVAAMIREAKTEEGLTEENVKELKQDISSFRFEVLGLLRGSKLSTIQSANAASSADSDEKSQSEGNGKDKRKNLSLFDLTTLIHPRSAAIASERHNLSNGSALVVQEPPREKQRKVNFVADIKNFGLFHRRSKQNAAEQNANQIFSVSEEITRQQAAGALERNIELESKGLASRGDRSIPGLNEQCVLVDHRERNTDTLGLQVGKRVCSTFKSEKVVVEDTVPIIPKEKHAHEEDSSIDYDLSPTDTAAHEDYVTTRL

[10] = molecular target: T3, RNA-binding protein pos-1 (Caenorhabditis elegans, UniProt G5EF15); test: inhibitors of POS-1/mex-3 RNA binding, dose response, biochemical, fluorescence polarization (AID 1964);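 note: purified POS-1 fused to maltose binding protein made in E. coli; potency of compounds blocking POS-1 binding to fluorescent RNA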
T3 sequence (G5EF15 whole entry): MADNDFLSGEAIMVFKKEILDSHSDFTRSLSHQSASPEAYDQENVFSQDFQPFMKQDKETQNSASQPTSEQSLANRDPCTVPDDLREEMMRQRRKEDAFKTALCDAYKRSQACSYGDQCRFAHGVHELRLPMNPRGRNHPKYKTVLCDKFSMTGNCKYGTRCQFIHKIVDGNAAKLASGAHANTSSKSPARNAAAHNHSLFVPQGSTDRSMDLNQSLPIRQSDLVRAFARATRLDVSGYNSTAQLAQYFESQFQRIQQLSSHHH

[11] = molecular target: T4, Zinc finger protein mex-5 (Caenorhabditis elegans, UniProt Q9XUB2); test: MEX-5/TCR-2 RNA interaction inhibitors, dose response, biochemical, C. elegans, fluorescence polarization (AID 1960)
T4 sequence (Q9XUB2 whole entry): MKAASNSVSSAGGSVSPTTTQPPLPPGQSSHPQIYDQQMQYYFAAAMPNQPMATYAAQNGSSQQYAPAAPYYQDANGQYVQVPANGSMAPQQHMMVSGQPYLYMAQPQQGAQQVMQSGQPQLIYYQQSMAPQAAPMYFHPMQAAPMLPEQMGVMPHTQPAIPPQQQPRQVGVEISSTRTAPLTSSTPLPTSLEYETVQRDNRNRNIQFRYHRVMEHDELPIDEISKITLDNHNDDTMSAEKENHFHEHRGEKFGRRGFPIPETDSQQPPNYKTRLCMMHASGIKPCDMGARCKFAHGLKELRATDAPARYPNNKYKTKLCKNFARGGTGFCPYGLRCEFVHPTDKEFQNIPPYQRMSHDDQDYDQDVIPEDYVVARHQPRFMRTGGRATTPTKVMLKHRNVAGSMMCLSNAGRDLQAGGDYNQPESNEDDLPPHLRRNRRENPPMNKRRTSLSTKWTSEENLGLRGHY

[12] = microbe, parasite or virus in culture; format: functional; conditions: Mycobacterium tuberculosis
[13] = MC4R antagonists, dose response, counter-screen for LGR2 antagonist project, cell-based, plate reader, cherry pick (AID 743444); format: functional;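 note: transfected HEK 293 cells stimulated with alpha-MSH peptide; potency of inhibitors of the alpha-MSH evoked signal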
[14] = growth suppression of PTEN-null colon cells, dose response, cell-based, HCT116 PTEN knockout (AID 1047); format: functional;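 note: HCT116 colon tumor cells with PTEN knocked out; cells exposed to compound for 60 hours before readout; potency for loss of cell viability measured by luminescence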
[15] = A549 cell cytotoxicity, dose response, cytotoxicity control, plate reader, cherry-pick, antagonist series (AID 743412); format: functional, cell-based
[16] = cytotoxicity toward NIH3T3 fibroblasts, dose response, counter-screen, cell-based, ATP luminescence, mouse fibroblasts (AID 2010); format: functional;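 note: cells exposed to compound for about 90 hours before reading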
[17] = inhibitors of intracellular T. cruzi replication, confirmation, NIH3T3 host cells, beta-gal luminescence (AID 2044); format: functional, cell-based;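 note: intracellular parasites grown in NIH/3T3 mouse fibroblasts as host cells; luminescent beta-galactosidase reporter signal from transgenic T. cruzi replicating inside host cells; inhibitors lower the luminescence signal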
[18] = growth suppression of beta-catenin-knockout colon cells, dose response, cell-based, HCT116, human colon tumor (AID 1045); format: functional;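 note: HCT116 colon tumor cells with beta catenin knocked out; cells exposed to compound for 60 hours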
[19] = molecular target: Induced myeloid leukemia cell differentiation protein Mcl-1 (Homo sapiens, UniProt Q07820); format: functional
[20] = Luminescence Cell-Based Dose Response HTS to Identify Inhibitors of 5'UTR Stem-Loop Driven Prion Protein mRNA Translation in H4 Neuroglioblastoma Cells. [Related pubchem assays: 1827 (Project Summary), 1813 (Primary HTS)]; format: functional
[21] = inhibitors of SNCA 5'UTR-driven reporter translation, confirmation, H4 neuroglioma cells, luminescence (AID 1988); format: functional, cell-based
[22] = inhibitors of firefly luciferase expression or activity, dose response, H4 neuroglioma cells, luminescence (AID 1990); format: functional, cell-based

T1 sequence (P49327 whole entry, the tested form may be a part): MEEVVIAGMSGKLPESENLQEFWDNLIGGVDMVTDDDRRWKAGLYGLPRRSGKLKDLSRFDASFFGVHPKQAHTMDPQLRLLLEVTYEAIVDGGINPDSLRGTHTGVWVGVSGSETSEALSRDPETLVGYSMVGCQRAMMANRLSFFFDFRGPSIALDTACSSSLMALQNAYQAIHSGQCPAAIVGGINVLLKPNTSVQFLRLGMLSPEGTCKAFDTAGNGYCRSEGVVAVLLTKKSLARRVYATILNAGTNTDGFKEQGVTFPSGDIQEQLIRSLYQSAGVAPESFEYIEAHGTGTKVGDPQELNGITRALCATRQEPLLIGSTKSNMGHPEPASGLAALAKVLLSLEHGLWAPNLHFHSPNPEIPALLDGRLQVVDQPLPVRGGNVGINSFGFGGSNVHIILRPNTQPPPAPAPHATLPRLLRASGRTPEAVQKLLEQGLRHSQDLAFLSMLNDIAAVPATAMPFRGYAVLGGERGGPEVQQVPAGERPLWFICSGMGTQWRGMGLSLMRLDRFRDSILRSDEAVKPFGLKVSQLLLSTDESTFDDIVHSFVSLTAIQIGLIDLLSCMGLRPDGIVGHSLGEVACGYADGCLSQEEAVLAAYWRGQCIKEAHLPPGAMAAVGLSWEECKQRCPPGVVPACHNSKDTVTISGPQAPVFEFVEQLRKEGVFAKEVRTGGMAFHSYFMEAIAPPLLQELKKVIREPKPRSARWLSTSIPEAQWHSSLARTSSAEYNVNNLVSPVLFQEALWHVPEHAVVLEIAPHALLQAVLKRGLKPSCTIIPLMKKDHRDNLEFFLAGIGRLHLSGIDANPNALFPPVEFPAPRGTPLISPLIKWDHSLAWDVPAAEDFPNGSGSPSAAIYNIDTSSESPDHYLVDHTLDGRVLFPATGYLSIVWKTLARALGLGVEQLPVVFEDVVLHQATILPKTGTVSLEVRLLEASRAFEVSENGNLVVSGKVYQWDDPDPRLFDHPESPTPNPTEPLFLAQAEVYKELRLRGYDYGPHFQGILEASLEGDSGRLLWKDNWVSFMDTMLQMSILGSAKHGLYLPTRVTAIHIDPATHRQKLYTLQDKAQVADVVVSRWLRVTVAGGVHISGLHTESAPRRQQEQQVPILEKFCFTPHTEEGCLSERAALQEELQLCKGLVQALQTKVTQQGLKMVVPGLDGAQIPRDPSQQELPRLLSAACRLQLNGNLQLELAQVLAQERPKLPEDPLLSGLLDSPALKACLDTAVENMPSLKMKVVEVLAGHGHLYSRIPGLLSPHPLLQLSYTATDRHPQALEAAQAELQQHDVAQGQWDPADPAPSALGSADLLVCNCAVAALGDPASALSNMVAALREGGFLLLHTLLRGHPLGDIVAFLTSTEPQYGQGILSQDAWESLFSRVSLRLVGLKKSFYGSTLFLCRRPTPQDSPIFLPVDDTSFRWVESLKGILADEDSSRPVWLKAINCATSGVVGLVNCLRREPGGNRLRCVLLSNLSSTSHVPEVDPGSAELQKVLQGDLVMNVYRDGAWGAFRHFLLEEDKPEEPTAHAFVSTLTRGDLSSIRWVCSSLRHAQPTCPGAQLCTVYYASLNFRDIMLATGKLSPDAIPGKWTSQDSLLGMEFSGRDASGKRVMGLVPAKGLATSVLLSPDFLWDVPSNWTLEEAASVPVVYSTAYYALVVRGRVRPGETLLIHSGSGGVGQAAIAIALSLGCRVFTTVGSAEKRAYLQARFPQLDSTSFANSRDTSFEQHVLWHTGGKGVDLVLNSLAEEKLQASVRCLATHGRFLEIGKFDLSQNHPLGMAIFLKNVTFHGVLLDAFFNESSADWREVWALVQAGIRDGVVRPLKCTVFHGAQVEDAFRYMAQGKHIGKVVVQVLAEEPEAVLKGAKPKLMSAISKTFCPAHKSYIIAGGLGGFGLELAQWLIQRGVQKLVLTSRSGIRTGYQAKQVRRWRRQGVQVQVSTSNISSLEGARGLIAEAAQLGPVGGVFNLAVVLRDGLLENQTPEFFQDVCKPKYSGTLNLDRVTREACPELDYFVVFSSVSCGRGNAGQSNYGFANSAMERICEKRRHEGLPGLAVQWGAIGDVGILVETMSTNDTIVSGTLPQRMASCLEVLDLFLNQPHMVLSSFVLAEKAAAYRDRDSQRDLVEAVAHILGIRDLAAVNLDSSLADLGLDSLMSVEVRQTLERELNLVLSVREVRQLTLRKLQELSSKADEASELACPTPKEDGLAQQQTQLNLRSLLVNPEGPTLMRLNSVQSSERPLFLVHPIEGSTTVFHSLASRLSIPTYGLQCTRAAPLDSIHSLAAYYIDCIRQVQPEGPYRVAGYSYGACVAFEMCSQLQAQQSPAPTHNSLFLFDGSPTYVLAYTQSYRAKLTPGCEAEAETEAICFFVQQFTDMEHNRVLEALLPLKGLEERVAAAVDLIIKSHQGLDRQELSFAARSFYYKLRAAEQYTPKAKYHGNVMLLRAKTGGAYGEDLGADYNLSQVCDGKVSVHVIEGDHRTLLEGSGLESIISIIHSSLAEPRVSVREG
Sequence of Luciferin 4-monooxygenase (P08659 whole entry): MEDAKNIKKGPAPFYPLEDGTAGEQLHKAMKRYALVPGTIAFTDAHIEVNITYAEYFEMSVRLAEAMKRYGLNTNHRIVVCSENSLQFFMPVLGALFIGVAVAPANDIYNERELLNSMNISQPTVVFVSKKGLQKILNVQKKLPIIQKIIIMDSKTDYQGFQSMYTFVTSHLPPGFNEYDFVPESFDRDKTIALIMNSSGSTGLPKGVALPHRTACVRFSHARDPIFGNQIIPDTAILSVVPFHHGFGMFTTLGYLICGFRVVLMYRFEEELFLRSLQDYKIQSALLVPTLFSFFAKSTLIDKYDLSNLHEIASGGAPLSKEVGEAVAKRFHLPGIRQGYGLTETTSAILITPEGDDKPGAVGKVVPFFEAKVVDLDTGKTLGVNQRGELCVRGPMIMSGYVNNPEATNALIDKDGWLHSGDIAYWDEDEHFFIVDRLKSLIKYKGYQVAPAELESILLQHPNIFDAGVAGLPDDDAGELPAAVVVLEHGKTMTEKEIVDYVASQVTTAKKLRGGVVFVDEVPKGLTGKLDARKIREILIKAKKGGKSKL
Sequence of Induced myeloid leukemia cell differentiation protein Mcl-1 (Q07820 whole entry): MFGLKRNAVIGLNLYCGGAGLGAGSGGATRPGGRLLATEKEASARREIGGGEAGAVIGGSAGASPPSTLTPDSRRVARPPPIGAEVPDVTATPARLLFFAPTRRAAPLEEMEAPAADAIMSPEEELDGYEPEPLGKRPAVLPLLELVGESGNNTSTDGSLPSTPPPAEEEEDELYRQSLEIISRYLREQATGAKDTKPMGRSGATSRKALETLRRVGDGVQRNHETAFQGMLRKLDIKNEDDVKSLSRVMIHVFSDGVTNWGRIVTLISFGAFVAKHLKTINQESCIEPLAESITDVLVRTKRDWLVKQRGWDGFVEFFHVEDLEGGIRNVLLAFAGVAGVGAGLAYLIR

Q: Which results are given for COc1ccc(Cl)cc1NC(=O)Nc1cnccn1?
A: EC50 [1]: > 112 µM (not active); EC50 [2]: > 112 µM (not active); AC50 [3]: 3.57 µM (active); AC50 [4]: 2.19 µM (active); AC50 [5]: 14.2 µM (active); AC50 [6]: 37.9 µM (active)

Q: What does the source list for O=C(O)CC(NC(=O)CCC1CCCCC1)c1cc([N+](=O)[O-])ccc1Cl (configuration not stated)?
A: IC50 (Fatty acid synthase [7]): 10.7 µM (active); IC50 (Fatty acid synthase [8]): 8.7 µM (active)

Q: Which EC50 [9] does the source give for CC(C1CC2CCC1C2)n1c(S)nnc1-c1cccs1 (configuration not stated) here?
A: 2.66 µM (active)

Q: With CCCCc1ccc(NC(=O)CSC2=NN3CCCC(=O)N=C3S2)cc1 as the molecule, how does the EC50 [10] read?
A: > 300 µM (not active)

Q: What about the EC50 [11] of the same molecule?
A: > 300 µM (not active)

Q: And the CC50 [12]?
A: > 40 µM (active)

Q: For N#CCCSc1nc(N2CCOCC2)c2c(c1C#N)CCCC2, which IC50 (Fatty acid synthase [7]) is on record?
A: 7.57 µM (active)

Q: What about the IC50 (Fatty acid synthase [8]) of the same molecule?
A: 5.49 µM (active)

Q: Which results are given for CNC(=S)N(Cc1ccc(OC)cc1)C1CC(=O)N(c2ccc(Cl)cc2)C1=O (configuration not stated)?
A: IC50 (Fatty acid synthase [7]): 11 µM (active); IC50 (Fatty acid synthase [8]): 9.36 µM (active)

Q: With CC(C)CCNC(=O)C(c1ccc(O)cc1)N(Cc1cccs1)C(=O)C1COc2ccccc2O1 (configuration not stated) as the molecule, how does the AC50 [13] read?
A: 35.3 µM (active)

Q: What about the EC50 [14] of the same molecule?
A: 19.5 µM (active)

Q: What about the AC50 [15] of the same molecule?
A: > 52 µM (inactive)

Q: What about the EC50 [16] of the same molecule?
A: > 60 µM (inconclusive)

Q: What about the EC50 [17] of the same molecule?
A: 1.58 µM (active)

Q: And the EC50 [18]?
A: 21.4 µM (active)

Q: With Cc1ccc(-n2nc(-c3cccs3)cc2C(=O)NCC2CCCO2)c(C)c1 (configuration not stated) as the molecule, how does the EC50 [9] read?
A: 4.73 µM (active)

Q: With CCN(CC)S(=O)(=O)c1ccc(N2CCCC2)c(NC(=O)Cc2cc(OC)c(OC)c(OC)c2)c1 as the molecule, how does the AC50 [3] read?
A: 3.42 µM (active)

Q: And the AC50 [4]?
A: 6.7 µM (active)

Q: And the AC50 [5]?
A: 7.04 µM (active)

Q: And the AC50 [6]?
A: 5.2 µM (active)

Q: For CCOCCCNCc1cc(Br)ccc1OCc1ccccc1, which EC50 [9] is on record?
A: 1.33 µM (active)

Q: With COc1ccc2nc(Nc3sc4c(c3C(N)=O)CCCC4)sc2c1 as the molecule, how does the IC50 [19] read?
A: 8.79 µM (active)

Q: With Cc1ccc(Cn2nnnc2CN2CCC(c3nc4cc(Cl)ccc4[nH]3)CC2)cc1 as the molecule, how does the EC50 [20] read?
A: 10.5 µM (active)

Q: And the CC50 [12]?
A: 6.84 µM (active)

Q: And the AC50 [3]?
A: 19.5 µM (active)

Q: And the EC50 [21]?
A: 2.45 µM (active)

Q: And the EC50 [22]?
A: 7.23 µM (active)

Q: What about the AC50 [6] of the same molecule?
A: 2.37 µM (active)

Q: For O=C(NCc1ccccc1)/C(=C\c1cccc([N+](=O)[O-])c1)NC(=O)c1ccco1, which IC50 (Fatty acid synthase [7]) is on record?
A: 5.46 µM (active)

Q: What about the IC50 (Fatty acid synthase [8]) of the same molecule?
A: 4.06 µM (active)
